Earlier results in patent US20200171007A1, “Methods of Treating Hepatorenal Syndrome and Hepatic Encephalopathy with Thromboxane-A2 Receptor Antagonists” (Cumberland Pharmaceuticals Inc., priority 2010, published 2020).
Blank lines part the entries; values can stand above or below the compound they belong to. Where a SMILES comes first, the peptide text is derived from it. Bridges are numbered along the chain shown (N, C = ends). [ ]: non-standard residue; d: D form.

How the values were obtained:
[1] = tested on: patients with hepatorenal syndrome; details: intravenous, twelve patients
[2] = tested on: patients with cirrhosis; details: patients with cirrhosis / hepatorenal syndrome
[3] = tested on: patients with cirrhosis, ascites, and hepatorenal syndrome; details: case series
[4] = tested on: patients with type 1 hepatorenal syndrome
[5] = tested on: patients with hepatorenal syndrome
[6] = tested on: patients with hepatorenal syndrome; details: five studies
[7] = tested on: patients with type 1 hepatorenal syndrome; details: nonpressor doses, with albumin
[8] = tested on: patients with hepatorenal syndrome; details: ornipressin and albumin
[9] = tested on: patients with type 1 hepatorenal syndrome; details: type 1 hepatorenal syndrome (octapressin); short-term use (ornipressin)
[10] = includes 2 patients who received liver transplantation

SMILES: CC(=O)N[C@@H](CS)C(=O)O [NAC, N-acetylcysteine]
adverse effects [1]: without any adverse effects
survival rate at 1 month [1, 10]: 67%
survival rate at 3 months [1, 10]: 58%

SMILES: Cc1ccc(N(CC2=NCCN2)c2cccc(O)c2)cc1 [phentolamine]
effect on blood pressure and renal function [2]: Poor results

SMILES: CC(C)C[C@@H]1NC(=O)[C@@H](C(C)C)NC(=O)[C@@H]2CCCN2C(=O)[C@@H](CC(=O)O)NC(=O)[C@@H](Cc2c[nH]c3ccccc23)NC1=O [BQ123] (cyclo(L[dW][dD]P[dV]))
patients with improvement in the glomerular filtration rate [3]: 3 patients

SMILES: CNCC(=O)N[C@@H](CCCN=C(N)N)C(=O)N[C@H](C(=O)N[C@@H](Cc1ccc(O)cc1)C(=O)N[C@H](C(=O)N[C@@H](Cc1cnc[nH]1)C(=O)N1CCC[C@H]1C(=O)N[C@@H](C)C(=O)O)C(C)C)C(C)C [Saralasin]
effect on blood pressure and renal function [2]: worsening hypotension and deterioration in renal function

Ischemic complications ([4]; in vivo): < 5%
SMILES: NCCCC[C@H](NC(=O)[C@@H]1CCCN1C(=O)[C@@H]1CSSC[C@H](NC(=O)CNC(=O)CNC(=O)CN)C(=O)N[C@@H](Cc2ccc(O)cc2)C(=O)N[C@@H](Cc2ccccc2)C(=O)N[C@@H](CCC(N)=O)C(=O)N[C@@H](CC(N)=O)C(=O)N1)C(=O)NCC(N)=O [terlipressin] (H-GGGCYFQNCPKG-NH2; disulfide 4-9)
recurrent hepatorenal syndrome after treatment discontinuation ([4]; in conjunction with albumin): < 15%
improvement in glomerular filtration rate and reduction in serum creatinine levels to below 1.5 mg/dL, share of patients ([4]; in conjunction with albumin, type 1 hepatorenal syndrome): 60-75%
adverse ischemic effects ([5]; human, in vivo): No adverse ischemic effects were reported
Reversal of hepatorenal syndrome ([5]; terlipressin and albumin for 5-15 days, 9 patients treated): 7 of 9

SMILES: NCCc1ccc(O)c(O)c1 [dopamine]
changes in renal plasma flow, glomerular filtration rate, or urine output [6]: none have reported significant changes
improvement in renal function [7]: none of the patients treated with dopamine showed any improvement in renal function

patients in whom treatment had to be discontinued because of complications (ischemic colitis, tongue ischemia, glossitis) ([8]; 8 patients, after fewer than 9 days): 4 patients
SMILES: NCCC[C@H](NC(=O)[C@@H]1CCCN1C(=O)[C@@H]1CSSC[C@H](N)C(=O)N[C@@H](Cc2ccc(O)cc2)C(=O)N[C@@H](Cc2ccccc2)C(=O)N[C@@H](CCC(N)=O)C(=O)N[C@@H](CC(N)=O)C(=O)N1)C(=O)NCC(N)=O [ornipressin]
improvement in renal plasma flow and glomerular filtration rate ([8]; remaining 4 patients treated for 15 days): significant
Renal plasma flow and glomerular filtration rate [9]: significant increase
